Assay results from US20160298165A1 (priority 2013, published 2016).

What was measured:
M. tuberculosis H37Rv = format: cell-based, Mycobacterium tuberculosis
[1] = test system: M. tuberculosis H37Rv ΔRD1 ΔpanCD; format: cell-based; conditions: treated for 3 days
M. tuberculosis [2] = format: cell-based, Mycobacterium tuberculosis
M. tuberculosis [3] = format: cell-based, Mycobacterium tuberculosis; remark: listed apart in the source
[4] = test system: M. tuberculosis mc26230 (H37Rv ΔRD1 ΔpanCD); format: cell-based; conditions: anaerobic chamber; 4 mM VC
[5] = test system: M. tuberculosis H37Rv ΔRD1 ΔpanCD; format: cell-based; conditions: cysteine 4 mM, 24 h
[6] = test system: M. tuberculosis H37Rv ΔRD1 ΔpanCD; format: cell-based; conditions: cysteine 4 mM, 24 h; remark: listed apart in the source
M. tuberculosis [7] = format: cell-based, Mycobacterium tuberculosis; remark: listed apart in the source

OC(CS)C(O)CS (stereo not drawn) [Dithio- threitol]
sterilization of cultures when combined with INH (M. tuberculosis H37Rv): sterilized

CC[C@@H](CO)NCCN[C@@H](CC)CO [EMB, Ethambutol, reference compound]
decrease in CFU (M. tuberculosis H37Rv): very slow decrease

NNC(=O)c1ccncc1 [INH, Isoniazid]
intracellular levels of ferrous ions vs untreated sample [1]: very high | decrease in CFUs (M. tuberculosis H37Rv): 3-4 log

O=C1O[C@H]([C@@H](O)CO)C(O)=C1O [VC, Vitamin C]
increase in total ROS (M. tuberculosis [2]): Up to threefold | total ROS concentration relative to the untreated sample (M. tuberculosis [2]): did not substantially alter | cells with DNA breaks relative to untreated culture or culture treated with VE (M. tuberculosis [3]): tenfold higher | percentage of cells with DNA breaks (M. tuberculosis [3]): 17-25% | effect on M. tuberculosis viability [4]: no effect

Cc1c(C)c2c(c(C)c1O)CC[C@@](C)(CCC[C@H](C)CCC[C@H](C)CCCC(C)C)O2 [VE, vitamin E, reference compound]
ROS level vs untreated samples (M. tuberculosis [2]): lowered ROS level

N[C@@H](CS)C(=O)O [cysteine]
cystine concentration vs untreated sample [5]: 100 times | decrease in CFUs (M. tuberculosis H37Rv): 6 log | effect of cysteine on killing of M. tuberculosis by ETH (M. tuberculosis H37Rv): did not increase the killing | growth of M. tuberculosis with cysteine alone (M. tuberculosis H37Rv): not affected | levels of free thiols [6]: lower

Cc1ccc2ccc3ccc(C)nc3c2n1 [neocuproine, reference compound]
decrease in CFUs (M. tuberculosis H37Rv): 5 log | growth of M. tuberculosis with neocuproine alone (M. tuberculosis H37Rv): no impact on the growth

Antimycin
cidal activity (M. tuberculosis [7]): no cidal activity
